Laboratory results from patent US9637520B2, “Template-fixed peptidomimetics with CXCR7 modulating activity” (POLYPHOR AG, priority 2010, dated 2017).
Starred links: 1 amine or outer side, 2 acyl side, 3 side chain; linkers in the order of their positions; H or OH if unused. Non-standard residues stand in square brackets, D forms with d. Residues, ends and D or L forms follow the SMILES beside them. *: point of attachment. Arg(Nω,Nω'-propylene) = N[C@@H](CCCNC1=NCCCN1)C(=O)O; Phe(4-CF3) = N[C@@H](Cc1ccc(C(F)(F)F)cc1)C(=O)O; Ala(pyrazol-1-yl) = N[C@@H](Cn1cccn1)C(=O)O; dPro(cis-4-NH2) = N[C@H]1CN[C@@H](C(=O)O)C1; X4 = Cn1ccnc1CNCCC[C@H](N[*:1])C(=O)[*:2]; dPro(3S-OH) = O=C(O)[C@@H]1NCC[C@@H]1O; 1Nal = N[C@@H](Cc1cccc2ccccc12)C(=O)O; 2Nal = N[C@@H](Cc1ccc2ccccc2c1)C(=O)O; Pro(3S-OH) = O=C(O)[C@H]1NCC[C@@H]1O; dCit = NC(=O)NCCC[C@@H](N)C(=O)O; Tic = O=C(O)[C@@H]1Cc2ccccc2CN1; aThr = C[C@H](O)[C@H](N)C(=O)O; 2Pyrimidinyl = c1cnc(*)nc1; dPip = O=C(O)[C@H]1CCCCN1; Orn = NCCC[C@H](N)C(=O)O; Dab = NCC[C@H](N)C(=O)O

Biological target: T1, CXCR7 (Homo sapiens, UniProt P25106)
T1 construct: host or cells: CHO (PathHunter CHO-CXCR7 β-arrestin cells)
Experiment: CXCR7 β-arrestin recruitment assay (PathHunter CHO-CXCR7, DiscoverX), agonistic assay
Assay type: cell-based
Conditions: agonistic assay; CHO CXCR7 β-arrestin cells; 90 min at 37° C.; chemiluminescence; read-out: β-Arrestin EC50
Protocol: Lyophilized peptides were weighed on a Microbalance (Mettler MX5) and dissolved in DMSO to a final concentration of 10 mM unless otherwise stated. Stock solutions were kept at +4° C., and protected from light.
2.2 CXCR7 β-Arrestin Recruitment Assay
The PathHunter CHO-CXCR7 (DiscoverX) assay was performed according to the manufacturer's protocol. In brief, CHO CXCR7 β-arrestin cells were seeded at a density of 5000 cells per well in 40 μl of F12 medium in black 96-half volume well culture plates and incubated overnight at 37° C. in a humidified atmosphere with 5% CO2. The next day, serial dilutions of PEM compounds have been prepared in DMSO and subsequently diluted in HBSS buffer containing 0.1% BSA.
For agonistic assay, 10 μl of compound solution or a solution of stromal cell-derived factor-1 (SDF-1) as positive control was added to the cells with a final DMSO concentration of 1% (v/v). The plate was incubated for 90 min at 37° C. in 5% CO2 incubator with gentle shaking (300 rpm) before addition of 40 μl of detection reagent per well. Reaction was developed for 90 min at room temperature in the dark with shaking, and chemiluminescence was measured with a Topcount (Perkin Elmer) luminescence counter.

T1 sequence (P25106 whole entry): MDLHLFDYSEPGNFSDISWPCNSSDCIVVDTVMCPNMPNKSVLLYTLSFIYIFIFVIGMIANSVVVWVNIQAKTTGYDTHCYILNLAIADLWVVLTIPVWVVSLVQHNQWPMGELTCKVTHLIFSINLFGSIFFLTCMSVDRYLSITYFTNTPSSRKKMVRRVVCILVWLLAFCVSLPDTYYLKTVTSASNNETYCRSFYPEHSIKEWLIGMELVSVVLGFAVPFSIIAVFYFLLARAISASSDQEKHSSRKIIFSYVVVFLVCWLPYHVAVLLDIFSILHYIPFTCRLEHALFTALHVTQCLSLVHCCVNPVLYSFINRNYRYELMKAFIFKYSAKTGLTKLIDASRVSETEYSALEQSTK

| EC50 | Compound |
| --- | --- |
| 0.632 ± 0.0233 µM | CC[C@H](C)[C@@H]1NC(=O)[C@H]([C@@H](C)O)NC(=O)[C@H]2[C@@H](O)CCN2C(=O)[C@H](Cc2c[nH]c3ccccc23)NC(=O)[C@H](CCCNC(=N)N)NC(=O)[C@@H](CCCNC(=N)N)NC1=O [Ex. 55, cyclo(-Ile-^DArg-Arg-Trp-^DPro((4S)OH)-Thr-)] (cyclo(I[dR]RW[dPro(3S-OH)]T)) |
| 0.949 ± 0.0753 µM | CC[C@H](C)[C@@H]1NC(=O)[C@H]([C@@H](C)O)NC(=O)[C@H]2C[C@@H](N)CN2C(=O)[C@H](Cc2c[nH]c3ccccc23)NC(=O)[C@H](CCCNC(=N)N)NC(=O)[C@@H](CCCNC(=N)N)NC1=O [Ex. 56, cyclo(-Ile-^DArg-Arg-Trp-^DPro((4R)NH2)-Thr-)] (cyclo(I[dR]RW[dPro(cis-4-NH2)]T)) |
| 0.453 ± 0.186 µM | CC[C@H](C)[C@@H]1NC(=O)[C@H]([C@@H](C)O)NC(=O)[C@H]2CCCN2C(=O)[C@H](Cc2c[nH]c3ccccc23)NC(=O)[C@H](CCCNc2ncccn2)NC(=O)[C@@H](CCCNC(=N)N)NC1=O [Ex. 68, cyclo(-Ile-^DArg-Orn(Ar2)-Trp-^DPro-Thr-)] (cyclo(I[dR][Orn](2Pyrimidinyl)W[dP]T)) |
| 0.337 ± 0.0926 µM | CC[C@H](C)[C@@H]1NC(=O)[C@H]([C@@H](C)O)NC(=O)[C@H]2CCCN2C(=O)[C@H](Cc2c[nH]c3ccccc23)NC(=O)[C@H](CCCNCc2nccn2C)NC(=O)[C@@H](CCCNC(=N)N)NC1=O [Ex. 69, cyclo(-Ile-^DArg-Orn(Ar7)-Trp-^DPro-Thr-)] (cyclo(I[dR][X4]W[dP]T)) |
| 0.0032 ± 0.0027 µM | CC[C@H](C)[C@@H]1NC(=O)[C@H]([C@@H](C)O)NC(=O)[C@H]2CCCN2C(=O)[C@H](Cc2c[nH]c3ccccc23)NC(=O)[C@H](CCCNC2=NCCCN2)NC(=O)[C@@H](CCCNC(=N)N)NC1=O [Ex. 71, cyclo(-Ile-^DArg-Orn(A56)-Trp-^DPro-Thr-)] (cyclo(I[dR][Arg(Nω,Nω'-propylene)]W[dP]T)) |
| 0.0045 ± 0.0011 µM | CC[C@H](C)[C@@H]1NC(=O)[C@H]([C@@H](C)O)NC(=O)[C@H]2CCCN2C(=O)[C@H](Cc2ccc(C(F)(F)F)cc2)NC(=O)[C@H](CCCNC(=N)N)NC(=O)[C@@H](CCCNC(=N)N)NC1=O [Ex. 72, cyclo(-Ile-^DArg-Arg-Phe(4CF3)-^DPro-Thr-)] (cyclo(I[dR]R[Phe(4-CF3)][dP]T)) |
| 0.014 ± 0.0001 µM | O=C1N[C@H](Cc2ccccc2)C(=O)N[C@@H](Cc2c[nH]c3ccccc23)C(=O)N[C@@H](CCCNC2=NCCCN2)C(=O)N2CCCC[C@@H]2C(=O)N2CC[C@H](O)[C@H]2C(=O)N[C@H]1Cc1c[nH]c2ccccc12 [Ex. 73, cyclo(-Trp-^DPhe-Trp-Orn(A56)-^DPip-Pro((3S)OH)—)] (cyclo(W[dF]W[Arg(Nω,Nω'-propylene)][dPip][Pro(3S-OH)])) |
| 0.0299 ± 0.0089 µM | N=C(N)NCCC[C@@H]1NC(=O)[C@H](Cc2c[nH]c3ccccc23)NC(=O)[C@@H](Cc2ccccc2)NC(=O)[C@H](Cn2cccn2)NC(=O)[C@@H]2Cc3ccccc3CN2C(=O)[C@H]2C[C@@H](N)CN2C1=O [Ex. 74, cyclo(-Ala(1Pyraz)-^DPhe-Trp-Arg-^DPro((4R)NH2)-Tic-)] (cyclo(R[dPro(cis-4-NH2)][Tic][Ala(pyrazol-1-yl)][dF]W)) |
| 0.209 ± 0.0066 µM | N=C(N)NCCC[C@@H]1NC(=O)[C@H](Cc2c[nH]c3ccccc23)NC(=O)[C@@H](Cc2ccccc2)NC(=O)[C@H](CCCNc2ncccn2)NC(=O)[C@@H]2Cc3ccccc3CN2C(=O)[C@H]2C[C@@H](N)CN2C1=O [Ex. 76, cyclo(-Orn(Ar2)-^DPhe-Trp-Arg-^DPro((4R)NH2)-Tic-)] (cyclo([Orn](2Pyrimidinyl)[dF]WR[dPro(cis-4-NH2)][Tic])) |
| 0.0787 ± 0.115 µM | CC[C@H](C)[C@@H]1NC(=O)[C@H]([C@@H](C)O)NC(=O)[C@H]2CCCN2C(=O)[C@H](Cc2c[nH]c3ccccc23)NC(=O)[C@H](CCCCN)NC(=O)[C@@H](CCCNC(=N)N)NC1=O [compound 3, cyclo(-Ile-^DArg-Lys-Trp-^DPro-Thr-)] (cyclo(I[dR]KW[dP]T)) |
| 0.292 ± 0.101 µM | CC[C@H](C)[C@@H]1NC(=O)[C@H]([C@H](C)O)NC(=O)[C@H]2CCCN2C(=O)[C@H](Cc2c[nH]c3ccccc23)NC(=O)[C@H](CCCNC(=N)N)NC(=O)[C@@H](CCCNC(=N)N)NC1=O [compound 9, cyclo(-Ile-^DArg-Arg-Trp-^DPro-alloThr-)] (cyclo(I[dR]RW[dP][aThr])) |
| 0.0867 ± 0.0097 µM | CC[C@H](C)[C@@H]1NC(=O)[C@H]([C@@H](C)O)NC(=O)[C@H]2CCCN2C(=O)[C@H](Cc2c[nH]c3ccccc23)NC(=O)[C@H](CCCNC(=N)N)NC(=O)[C@@H](CCCCN)NC1=O [compound 11, cyclo(-Ile-^DLys-Arg-Trp-^DPro-Thr-)] (cyclo(I[dK]RW[dP]T)) |
| 0.546 ± 0.241 µM | CC[C@H](C)[C@@H]1NC(=O)[C@H]([C@@H](C)O)NC(=O)[C@H]2CCCN2C(=O)[C@H](Cc2c[nH]c3ccccc23)NC(=O)[C@H](CCCNC(=N)N)NC(=O)[C@@H](Cc2c[nH]cn2)NC1=O [compound 12, cyclo(-Ile-^DHis-Arg-Trp-^DPro-Thr-)] (cyclo(I[dH]RW[dP]T)) |
| 0.473 ± 0.0689 µM | CC[C@H](C)[C@@H]1NC(=O)[C@H]([C@@H](C)O)NC(=O)[C@H]2CCCN2C(=O)[C@H](Cc2c[nH]c3ccccc23)NC(=O)[C@H](CCCNC(=N)N)NC(=O)[C@@H](CCCNC(N)=O)NC1=O [compound 13, cyclo(-Ile-^DCit-Arg-Trp-^DPro-Thr-)] (cyclo(I[dCit]RW[dP]T)) |
| 0.0001 µM | CC[C@H](C)[C@@H]1NC(=O)[C@H]([C@@H](C)O)NC(=O)[C@H]2CCCCN2C(=O)[C@H](Cc2c[nH]c3ccccc23)NC(=O)[C@H](CCCNC(=N)N)NC(=O)[C@@H](CCCNC(=N)N)NC1=O [compound 14, cyclo(-Ile-^DArg-Arg-Trp-^DPip-Thr-)] (cyclo(I[dR]RW[dPip]T)) |
| 0.0004 ± 0.0001 µM | CC[C@H](C)[C@@H]1NC(=O)[C@H]([C@@H](C)O)NC(=O)[C@H]2CCCN2C(=O)[C@H](Cc2ccc3ccccc3c2)NC(=O)[C@H](CCCNC(=N)N)NC(=O)[C@@H](CCCNC(=N)N)NC1=O [compound 15, cyclo(-Ile-^DArg-Arg-2Nal-^DPro-Thr-)] (cyclo([2Nal][dP]TI[dR]R)) |
| 0.0179 ± 0.0026 µM | CC[C@H](C)[C@@H]1NC(=O)[C@H]([C@@H](C)O)NC(=O)[C@H]2CCCN2C(=O)[C@H](Cc2cccc3ccccc23)NC(=O)[C@H](CCCNC(=N)N)NC(=O)[C@@H](CCCNC(=N)N)NC1=O [compound 16, cyclo(-Ile-^DArg-Arg-1Nal-^DPro-Thr-)] (cyclo([1Nal][dP]TI[dR]R)) |
| 0.0067 ± 0.0051 µM | CC[C@H](C)[C@@H]1NC(=O)[C@H]([C@@H](C)O)NC(=O)[C@H]2CCCN2C(=O)[C@H](Cc2c[nH]c3ccccc23)NC(=O)[C@H](CCCNC(=N)N)NC(=O)[C@@H](CCCNC(=N)N)NC1=O [compound 18, cyclo(-Ile-^DArg-Arg-Trp-^DPro-Thr-)] (cyclo(I[dR]RW[dP]T)) |
| 0.0172 ± 0.0189 µM | C[C@@H](O)[C@@H]1NC(=O)[C@H]([C@@H](C)O)NC(=O)[C@H]2CCCN2C(=O)[C@H](CCCNC(=N)N)NC(=O)[C@H](Cc2c[nH]c3ccccc23)NC(=O)[C@@H](CCCNC(=N)N)NC1=O [compound 19, cyclo(-Thr-^DArg-Trp-Arg-^DPro-Thr-)] (cyclo(R[dP]TT[dR]W)) |
| 0.0061 ± 0.0033 µM | N=C(N)NCCC[C@@H]1NC(=O)[C@H](Cc2c[nH]c3ccccc23)NC(=O)[C@@H](Cc2ccccc2)NC(=O)[C@H](Cc2c[nH]c3ccccc23)NC(=O)[C@@H]2Cc3ccccc3CN2C(=O)[C@H]2C[C@@H](N)CN2C1=O [compound 26, cyclo(-Trp-^DPhe-Trp-Arg-^DPro((4R)NH2)-Tic-)] (cyclo(R[dPro(cis-4-NH2)][Tic]W[dF]W)) |
| 0.322 ± 0.0482 µM | C[C@@H]1NC(=O)[C@@H]2Cc3ccccc3CN2C(=O)[C@H]2C[C@@H](N)CN2C(=O)[C@H](CCCNC(=N)N)NC(=O)[C@H](Cc2c[nH]c3ccccc23)NC(=O)[C@@H](Cc2ccccc2)NC1=O [compound 27, cyclo(-Ala-^DPhe-Trp-Arg-^DPro((4R)NH2)-Tic-)] (cyclo(A[dF]WR[dPro(cis-4-NH2)][Tic])) |
| 0.0209 ± 0.0273 µM | N=C(N)NCCC[C@@H]1NC(=O)[C@H](Cc2c[nH]c3ccccc23)NC(=O)[C@@H](Cc2ccccc2)NC(=O)[C@H](Cc2ccc(O)cc2)NC(=O)[C@@H]2Cc3ccccc3CN2C(=O)[C@H]2C[C@@H](N)CN2C1=O [compound 28, cyclo(-Tyr-^DPhe-Trp-Arg-^DPro((4R)NH2)-Tic-)] (cyclo(R[dPro(cis-4-NH2)][Tic]Y[dF]W)) |
| 0.0136 ± 0.005 µM | NCC[C@@H]1NC(=O)[C@H](Cc2c[nH]c3ccccc23)NC(=O)[C@@H](Cc2ccccc2)NC(=O)[C@H](Cc2c[nH]c3ccccc23)NC(=O)[C@@H]2Cc3ccccc3CN2C(=O)[C@H]2C[C@@H](N)CN2C1=O [compound 30, cyclo(-Trp-^DPhe-Trp-Dab-^DPro((4R)NH2)-Tic-)] (cyclo([Dab][dPro(cis-4-NH2)][Tic]W[dF]W)) |
| 0.138 ± 0.115 µM | NCCCC[C@@H]1NC(=O)[C@H](Cc2c[nH]c3ccccc23)NC(=O)[C@@H](Cc2ccccc2)NC(=O)[C@H](Cc2c[nH]c3ccccc23)NC(=O)[C@@H]2Cc3ccccc3CN2C(=O)[C@H]2C[C@@H](N)CN2C1=O [compound 31, cyclo(-Trp-^DPhe-Trp-Lys-^DPro((4R)NH2)-Tic-)] (cyclo(K[dPro(cis-4-NH2)][Tic]W[dF]W)) |
| 0.0204 ± 0.0066 µM | N[C@@H]1C[C@@H]2C(=O)N3Cc4ccccc4C[C@H]3C(=O)N[C@@H](Cc3c[nH]c4ccccc34)C(=O)N[C@H](Cc3ccccc3)C(=O)N[C@@H](Cc3c[nH]c4ccccc34)C(=O)N[C@@H](Cc3c[nH]cn3)C(=O)N2C1 [compound 32, cyclo(-Trp-^DPhe-Trp-His-^DPro((4R)NH2)-Tic-)] (cyclo(H[dPro(cis-4-NH2)][Tic]W[dF]W)) |
